Source: publication PMC6457333 (Chemical Science, 2019)

Biological target: N. europaea cyt P460 (Nitrosomonas europaea, UniProt Q50927)
Assay: biochemical

N. europaea cyt P460, sequence (Q50927 27-198): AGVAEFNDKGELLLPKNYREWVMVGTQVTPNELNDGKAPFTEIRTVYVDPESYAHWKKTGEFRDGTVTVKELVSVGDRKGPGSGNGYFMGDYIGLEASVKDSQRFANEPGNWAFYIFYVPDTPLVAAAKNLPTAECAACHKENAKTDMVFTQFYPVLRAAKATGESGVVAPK

SMILES: NO [hydroxylamine]
- Kd: 9 ± 1 mM
